Consider 11 compounds from patent publication US4782043A, “Renin inhibitors containing a C-terminal amide cycle” (Merck & Co., Inc., priority 1985, dated 1988).

Peptide text beside a SMILES is read from it.

The target of one test is hog kidney renin (Sus scrofa, UniProt A0A287APG1). Description: Hog renin inhibition. It counts as biochemical. Particulars: pH 7.3, concentration producing 50% inhibition of renin activity, read-out: I50. Here is the method: An assay was carried out in order to determine the inhibitory potency of the peptides of the present invention. The assay measured the inhibition of hog kidney renin, and was in accordance with the procedure described in Rich et al., J. Med. Chem. 23: 27, 1980, except that a pH of 7.3 was used. The results of the assay, illustrated in the table below, are expressed as I50 values, which refers to the concentration of peptide inhibitor necessary to produce 50% inhibition of renin activity. This I50 value is obtained typically by plotting data from four inhibitor concentrations. Pepstatin was used as an active control.
Chain of hog kidney renin (A0A287APG1 67-407): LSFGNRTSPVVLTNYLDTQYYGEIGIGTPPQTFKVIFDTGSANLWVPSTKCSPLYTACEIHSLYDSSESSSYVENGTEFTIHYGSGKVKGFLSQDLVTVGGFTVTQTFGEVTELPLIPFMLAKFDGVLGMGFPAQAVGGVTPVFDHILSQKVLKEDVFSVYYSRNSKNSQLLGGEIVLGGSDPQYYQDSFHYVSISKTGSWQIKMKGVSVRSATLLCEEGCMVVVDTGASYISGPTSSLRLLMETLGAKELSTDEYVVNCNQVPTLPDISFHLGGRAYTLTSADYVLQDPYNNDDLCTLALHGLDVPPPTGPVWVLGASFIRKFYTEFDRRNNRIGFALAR

A further test addresses T1, human kidney renin (Homo sapiens, UniProt P00797).
T1 construct: human kidney renin purified as described in Bangham; from tissue; host or cells: human kidney
T1 sequence (P00797 67-406): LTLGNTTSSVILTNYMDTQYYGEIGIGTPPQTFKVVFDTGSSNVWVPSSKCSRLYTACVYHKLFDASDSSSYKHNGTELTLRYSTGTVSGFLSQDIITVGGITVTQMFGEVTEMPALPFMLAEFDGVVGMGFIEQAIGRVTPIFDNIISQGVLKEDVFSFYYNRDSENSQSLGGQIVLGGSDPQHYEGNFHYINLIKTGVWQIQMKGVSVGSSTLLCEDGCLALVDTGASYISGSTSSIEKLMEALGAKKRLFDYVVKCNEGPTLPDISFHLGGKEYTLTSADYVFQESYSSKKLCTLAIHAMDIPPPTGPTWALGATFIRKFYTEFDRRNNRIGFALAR
Description: Human renin inhibition. It counts as biochemical. As to conditions: purified human kidney renin; dissociation constant of enzyme-inhibitor complex. Here is the method:
An assay was carried out in order to determine the inhibitory potency of the peptides of the present invention. The assay measured the inhibition of human kidney renin purified as described in Bangham, D. R., Robertson, I., Robinson, J. I. S., Robinson, C. J., and Tree, M., Clinical Science and Molecular Medicine, 48 (Supp. 2): 136s-159s (1975), and further purified by affinity chromatography on pepstatin-aminohexyl-Sepharase as describe in Poe, M., Wu., J. K., Florance, J. R., Radkey, J. A., Bennett, C. D., and Hoagsteen, K., J. Biol. Chem. (1982, in press). The assay was also in accordance with Poe et al. cited above. Results are expressed as KI values, which refer to the dissociation constant of the inhibited enzyme-inhibitor complex. This KI value was obtained as described above. Pepstatin was used as an active control.

The next test deals with hog renin. As to conditions: nephrectomized rats after injection of hog renin (Gross et al. 1971); cited from earlier work.

On to `CC(C)C[C@@H]1NC(=O)C[C@H](O)[C@H](CC(C)C)NC(=O)[C@@H](NC(=O)[C@H](Cc2ccccc2)NC(=O)[C@@H]2CCCN2C(=O)[C@H](Cc2c[nH]cn2)NC(=O)C(C)C)CCCCNC(=O)CNC(=O)[C@H](Cc2ccccc2)NC1=O` (HELM PEPTIDE1{[CC(C)C(=O)[*:2]].H.P.F.K.[CC(C)C[C@H](N[*:1])[C@@H](O)CC(=O)[*:2]].L.F.G}$PEPTIDE1,PEPTIDE1,5:R3-9:R2$$$V2.0), for which, at hog kidney renin, the IC50 turned out to be 1700 nM. Turning to `CC(C)C[C@@H]1NC(=O)C[C@H](O)[C@H](CC(C)C)NC(=O)[C@@H](NC(=O)[C@H](Cc2ccccc2)NC(=O)[C@@H]2CCCN2C(=O)[C@H](Cc2c[nH]cn2)NC(=O)C(C)C)CCNC(=O)CNC(=O)[C@H](Cc2ccccc2)NC1=O` (HELM PEPTIDE1{[CC(C)C(=O)[*:2]].H.P.F.[Dab].[CC(C)C[C@H](N[*:1])[C@@H](O)CC(=O)[*:2]].L.F.G}$PEPTIDE1,PEPTIDE1,5:R3-9:R2$$$V2.0), at hog kidney renin, the IC50 was 7100 nM.

As to `CC(C)C[C@@H]1NC(=O)C[C@H](O)[C@H](CC(C)C)NC(=O)[C@@H](NC(=O)[C@H](Cc2ccccc2)NC(=O)[C@@H]2CCCN2C(=O)[C@H](Cc2c[nH]cn2)NC(=O)C(C)C)CCCNC(=O)CNC(=O)[C@H](Cc2ccccc2)NC1=O` (HELM PEPTIDE1{[CC(C)C(=O)[*:2]].H.P.F.[Orn].[CC(C)C[C@H](N[*:1])[C@@H](O)CC(=O)[*:2]].L.F.G}$PEPTIDE1,PEPTIDE1,5:R3-9:R2$$$V2.0), the IC50 at hog kidney renin was 2800 nM. In the case of `CC(C)C[C@@H]1NC(=O)C[C@H](O)[C@H](CC(C)C)NC(=O)[C@@H](NC(=O)[C@H](Cc2ccccc2)NC(=O)[C@@H]2CCCN2C(=O)[C@H](Cc2c[nH]cn2)NC(=O)C(C)C)CCCNC(=O)[C@H](Cc2ccccc2)NC1=O` (HELM PEPTIDE1{[CC(C)C(=O)[*:2]].H.P.F.[Orn].[CC(C)C[C@H](N[*:1])[C@@H](O)CC(=O)[*:2]].L.F}$PEPTIDE1,PEPTIDE1,5:R3-8:R2$$$V2.0), the IC50 at hog kidney renin was 24000 nM. As for `CC(C)C[C@@H]1NC(=O)C[C@H](O)[C@H](Cc2ccccc2)NC(=O)[C@@H](NC(=O)C(CCCc2ccccc2)Cc2ccccc2)CCCCNC(=O)[C@H](Cc2ccccc2)NC1=O` (single isomer, unassigned) [drawing 38], the IC50 on hog kidney renin came out at 26 nM. In general, Ki refers to a dissociation constant, usually derived from enzyme kinetics or from competition with a known ligand. A higher Ki goes with a looser hold on the target. As for `CC(C)C[C@@H]1NC(=O)C[C@H](O)[C@H](Cc2ccccc2)NC(=O)[C@@H](NC(=O)C(CCCc2ccccc2)Cc2ccccc2)CCCCNC(=O)[C@H](Cc2ccccc2)NC1=O` (single isomer, unassigned) [drawing 41], the Ki on human kidney renin came to 190 nM.

For the compound `CC(C)C[C@@H]1NC(=O)C[C@H](O)[C@H](CC(C)C)NC(=O)[C@@H](NC(=O)[C@H](Cc2ccccc2)NC(=O)[C@@H]2CCCN2C(=O)[C@H](Cc2c[nH]cn2)NC(=O)C(C)C)CCCCNC(=O)[C@H](Cc2ccccc2)NC1=O` [drawing 31] (HELM PEPTIDE1{[CC(C)C(=O)[*:2]].H.P.F.K.[CC(C)C[C@H](N[*:1])[C@@H](O)CC(=O)[*:2]].L.F}$PEPTIDE1,PEPTIDE1,5:R3-8:R2$$$V2.0), the IC50 at hog kidney renin worked out at 230 nM. Same read-out and setting: the same measure for `CC(C)C[C@@H]1NC(=O)C[C@H](O)[C@H](CC(C)C)NC(=O)[C@@H](NC(=O)[C@H](Cc2ccccc2)NC(=O)OC(C)(C)C)CCCCNC(=O)[C@H](Cc2ccccc2)NC1=O` [drawing 37] (HELM PEPTIDE1{[CC(C)(C)OC(=O)[*:2]].F.K.[CC(C)C[C@H](N[*:1])[C@@H](O)CC(=O)[*:2]].L.F}$PEPTIDE1,PEPTIDE1,3:R3-6:R2$$$V2.0): 450 nM.

For `CC(C)C[C@@H]1NC(=O)C[C@H](O)[C@H](CC(C)C)NC(=O)[C@@H](NC(=O)[C@H](Cc2ccccc2)NC(=O)[C@@H]2CCCN2C(=O)[C@H](Cc2c[nH]cn2)NC(=O)C(C)C)CCCCNC(=O)[C@H](Cc2ccccc2)NC1=O` [drawing 39] (HELM PEPTIDE1{[CC(C)C(=O)[*:2]].H.P.F.K.[CC(C)C[C@H](N[*:1])[C@@H](O)CC(=O)[*:2]].L.F}$PEPTIDE1,PEPTIDE1,5:R3-8:R2$$$V2.0), the inhibitory constant (Ki) on human kidney renin came out at 55 nM. The same measure, in the same setting: the same measure for `CC(C)C[C@@H]1NC(=O)C[C@H](O)[C@H](CC(C)C)NC(=O)[C@@H](NC(=O)[C@H](Cc2ccccc2)NC(=O)OC(C)(C)C)CCCCNC(=O)[C@H](Cc2ccccc2)NC1=O` [drawing 40] (HELM PEPTIDE1{[CC(C)(C)OC(=O)[*:2]].F.K.[CC(C)C[C@H](N[*:1])[C@@H](O)CC(=O)[*:2]].L.F}$PEPTIDE1,PEPTIDE1,3:R3-6:R2$$$V2.0): 64 nM. Consider Pepstatin, for which the “blood pressure in vivo” value with hog renin was “reduce blood pressure in vivo”.
